Experimental data reported in patent US20240108634A1, “COMPOSITIONS AND METHODS FOR INHIBITING YAP” (The United States Government as represented by the …, priority 2021, published 2024).

System: YAP-TEAD transcriptional activity
Assay: HOP-flash TEAD binding site luciferase reporter
Assay type: cell-based, human
Conditions: LN229 or GBM39 cells, 18 h
Procedure: Levels of total YAP were determined via ELISA. […] Immunoprecipitates were immunoblotted for the indicated proteins. […] Cells were treated with the indicated concentrations of inhibitor for 18 h and mRNA extracted for real time RT-PCR analyses. Measurements were performed in quadruplicate and means and+S.D. are shown. […] Cells were treated with (+) or without (−) NSC682769 (100 nM, 18 h) and harvested and separated into cytoplasmic and nuclear cellular fractions. Cytoplasmic versus nuclear material was subsequently immunoblotted for the indicated proteins. […] Values in top right corner of panels correspond to the percentage of nuclear localized YAP. Cells were grown on coverslips and treated with NSC682769. Cells were permeabilized and stained using primary antibody to YAP1 and FITC-conjugated secondary. Nuclei were stained with DAPI. Scale bar, 20 μm.
Surface plasmon resonance (SPR), ELISA, YAP-TEAD reporter activity, cellular fractionation, and immunofluorescence analyses. SPR experiments were carried out on a Nicoya OpenSPR™ instrument using immobilized YAP on a carboxyl-coated sensor. […] YAP-TEAD reporter activity was determined as previously described (Kim N G, Gumbiner B M (2015) J Cell Biol 210: 503-515). […] Luciferase activity was measured via a luciferase assay system (Promega). […] Cell lysis was monitored by trypan blue staining. […]

In the case of `COc1ccc(-c2cc(-c3ccccc3)nc3c2CC(=O)Nc2ccccc2-3)cc1OC` [NSC682769], the “YAP-TEAD transcriptional activity (luciferase)” value is reported as “markedly reduced”.
